Legend:
[1] = molecular target: T1, Interstitial collagenase (Homo sapiens, UniProt P03956); test: Inhibition of MMP-1 (unknown origin) using 7-(methoxycoumarin-4yl)acetyl-Pro-Leu-Gly-Leu-(N-3-[2,4-dinitrophenyl]- L-2,3-diamino-propionyl)-Ala-Arg-NH2 as fluorogenic substrate for 45 mins by fluorogenic analysis
T1 sequence (P03956 whole entry): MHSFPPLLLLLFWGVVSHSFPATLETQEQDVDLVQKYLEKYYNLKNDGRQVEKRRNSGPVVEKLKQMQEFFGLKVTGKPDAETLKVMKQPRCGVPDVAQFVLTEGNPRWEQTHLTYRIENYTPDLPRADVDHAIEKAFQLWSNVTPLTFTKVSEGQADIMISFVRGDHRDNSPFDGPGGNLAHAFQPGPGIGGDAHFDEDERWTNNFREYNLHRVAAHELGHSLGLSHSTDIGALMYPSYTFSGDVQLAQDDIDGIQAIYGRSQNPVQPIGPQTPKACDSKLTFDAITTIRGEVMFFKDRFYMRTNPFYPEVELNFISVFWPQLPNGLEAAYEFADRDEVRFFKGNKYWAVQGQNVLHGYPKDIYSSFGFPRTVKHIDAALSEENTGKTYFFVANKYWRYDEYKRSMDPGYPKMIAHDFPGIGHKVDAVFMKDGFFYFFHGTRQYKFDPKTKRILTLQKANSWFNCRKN

[2] = molecular target: T2, Stromelysin-1 (Homo sapiens, UniProt P08254); test: Inhibition of human MMP-3 expressed in Escherichia coli BL21(DE3) using Mca-Pro-Leu-Gly-Leu-Dpa-Ala-Arg-NH2 as substrate preincubated for 30 mins followed by susbstrate addition by photon-counter spectrophotometer analysis
[3] = molecular target: T3, Neutrophil collagenase (Homo sapiens, UniProt P22894); test: Inhibition of human MMP-8 expressed in Escherichia coli BL21(DE3) using Mca-Pro-Leu-Gly-Leu-Dpa-Ala-Arg-NH2 as substrate preincubated for 30 mins followed by susbstrate addition by photon-counter spectrophotometer analysis
[4] = molecular target: T4, 72 kDa type IV collagenase (Homo sapiens, UniProt P08253); test: Inhibition of human MMP-2 expressed in Escherichia coli BL21(DE3) using Mca-Pro-Leu-Gly-Leu-Dpa-Ala-Arg-NH2 as substrate preincubated for 30 mins followed by susbstrate addition by photon-counter spectrophotometer analysis
[5] = molecular target: Stromelysin-2 (Homo sapiens, UniProt P09238); test: Inhibition of human MMP-10 expressed in Escherichia coli BL21(DE3) using Mca-Pro-Leu-Gly-Leu-Dpa-Ala-Arg-NH2 as substrate preincubated for 30 mins followed by susbstrate addition by photon-counter spectrophotometer analysis
[6] = molecular target: T5, Matrix metalloproteinase-9 (Homo sapiens, UniProt P14780); test: Inhibition of human MMP-9 expressed in Escherichia coli BL21(DE3) using Mca-Pro-Leu-Gly-Leu-Dpa-Ala-Arg-NH2 as substrate preincubated for 30 mins followed by susbstrate addition by photon-counter spectrophotometer analysis
[7] = molecular target: T1, Interstitial collagenase; test: Inhibition of human MMP-1 expressed in Escherichia coli BL21(DE3) using Mca-Pro-Leu-Gly-Leu-Dpa-Ala-Arg-NH2 as substrate preincubated for 30 mins followed by susbstrate addition by photon-counter spectrophotometer analysis
[8] = molecular target: T6, Macrophage metalloelastase (Homo sapiens, UniProt P39900); test: Inhibition of human MMP-12 expressed in Escherichia coli BL21(DE3) using Mca-Pro-Leu-Gly-Leu-Dpa-Ala-Arg-NH2 as substrate preincubated for 30 mins followed by susbstrate addition by photon-counter spectrophotometer analysis
[9] = molecular target: T7, Matrix metalloproteinase-14 (Homo sapiens, UniProt P50281); test: Inhibition of human MMP-14 expressed in Escherichia coli BL21(DE3) using Mca-Pro-Leu-Gly-Leu-Dpa-Ala-Arg-NH2 as substrate preincubated for 30 mins followed by susbstrate addition by photon-counter spectrophotometer analysis
[10] = molecular target: T8, Collagenase 3 (Homo sapiens, UniProt P45452); test: Inhibition of human MMP-13 expressed in Escherichia coli BL21(DE3) using Mca-Pro-Leu-Gly-Leu-Dpa-Ala-Arg-NH2 as substrate preincubated for 30 mins followed by susbstrate addition by photon-counter spectrophotometer analysis
[11] = molecular target: T9, Matrilysin (Homo sapiens, UniProt P09237); test: Inhibition of human MMP-7 expressed in Escherichia coli BL21(DE3) using Mca-Pro-Leu-Gly-Leu-Dpa-Ala-Arg-NH2 as substrate preincubated for 30 mins followed by susbstrate addition by photon-counter spectrophotometer analysis
T9 sequence (P09237 whole entry): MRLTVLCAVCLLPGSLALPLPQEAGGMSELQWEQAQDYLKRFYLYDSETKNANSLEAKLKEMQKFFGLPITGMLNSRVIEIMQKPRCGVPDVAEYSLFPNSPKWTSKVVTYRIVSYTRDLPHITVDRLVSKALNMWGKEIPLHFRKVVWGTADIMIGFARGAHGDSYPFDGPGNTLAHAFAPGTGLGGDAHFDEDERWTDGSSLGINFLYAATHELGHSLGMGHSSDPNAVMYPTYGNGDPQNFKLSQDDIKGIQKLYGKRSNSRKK

[12] = molecular target: T5, Matrix metalloproteinase-9; test: Inhibition of MMP-9 (unknown origin) using Mca-Pro-Leu-Gly-Leu-Dpa-Ala-Arg-NH2 as substrate preincubated for 30 mins followed by substrate addition for 2 to 4 hrs by fluorimetric assay
[13] = molecular target: T3, Neutrophil collagenase; test: Inhibition of MMP-8 (unknown origin) using Mca-Pro-Leu-Gly-Leu-Dpa-Ala-Arg-NH2 as substrate preincubated for 30 mins followed by substrate addition for 2 to 4 hrs by fluorimetric assay
[14] = molecular target: T7, Matrix metalloproteinase-14; test: Inhibition of MMP-14 (unknown origin) using Mca-Pro-Leu-Gly-Leu-Dpa-Ala-Arg-NH2 as substrate preincubated for 30 mins followed by substrate addition for 2 to 4 hrs by fluorimetric assay
[15] = test system: B16-F10; test: Antitumor activity in mouse B16-F10 xenografted C57BL mouse lung metastasis model assessed as increase in life span measured per hour at 100 mg/kg, ip bid; type: functional
[16] = Oral bioavailability in dog at 3 mg/kg; type: ADME, organism-based, Canis lupus familiaris; conditions: in vivo
[17] = Plasma concentration in dog at 3 mg/kg, iv measured upto 3 hrs; type: ADME, organism-based, Canis lupus familiaris
[18] = Metabolic stability in rat assessed as clearance at 3 mg/kg, iv; type: ADME, organism-based; conditions: in vivo
[19] = Oral bioavailability in rat at 3 mg/kg; type: ADME, organism-based; conditions: in vivo
[20] = Metabolic stability in dog assessed as clearance at 3 mg/kg, iv; type: ADME, organism-based, Canis lupus familiaris; conditions: in vivo
[21] = Half life in cynomolgus monkey at 3 mg/kg, iv; type: ADME, organism-based, Macaca fascicularis; conditions: in vivo
[22] = Plasma concentration in rat at 3 mg/kg, iv measured upto 3 hrs; type: ADME, organism-based
[23] = Plasma concentration in cynomolgus monkey at 3 mg/kg, iv measured upto 3 hrs; type: ADME, organism-based, Macaca fascicularis
[24] = Oral bioavailability in cynomolgus monkey at 3 mg/kg; type: ADME, organism-based, Macaca fascicularis; conditions: in vivo
[25] = Metabolic stability in cynomolgus monkey assessed as clearance at 3 mg/kg, iv; type: ADME, organism-based, Macaca fascicularis; conditions: in vivo
[26] = Half life in rat at 3 mg/kg, iv; type: ADME, organism-based; conditions: in vivo
[27] = molecular target: T2, Stromelysin-1; test: Inhibition of recombinant human MMP-3 using peptide substrate by ELISA
[28] = molecular target: T6, Macrophage metalloelastase; test: Inhibition of recombinant human MMP-12 using peptide substrate by ELISA
[29] = test system: B16-F10; test: Inhibition of cell invasion in mouse B16-F10 cells at 100 uM by Matrigel invasion assay; type: functional
[30] = test system: B16-F10; test: Antimetastatic activity in mouse B16-F10 xenografted C57BL mouse melanoma model assessed as reduction in metastasis loci at 12.5 to 50 mg/kg, ip; type: functional; design: scale not given: the % may be the effect or the level left; conditions: dose 12.5-50 mg/kg
[31] = molecular target: T1, Interstitial collagenase; test: Inhibition of recombinant human MMP-1 using peptide substrate by ELISA
[32] = Half life in Sprague-Dawley rats at 150 mg/kg, ip; type: ADME, organism-based; conditions: rat, in vivo
[33] = molecular target: T4, 72 kDa type IV collagenase; test: Inhibition of recombinant human MMP-2 using peptide substrate by ELISA
[34] = Half life in Sprague-Dawley rats at 150 mg/kg, po; type: ADME, organism-based; conditions: rat, in vivo
[35] = molecular target: T5, Matrix metalloproteinase-9; test: Inhibition of recombinant human MMP-9 using peptide substrate by ELISA
[36] = molecular target: T8, Collagenase 3; test: Inhibition of recombinant human MMP-13 using peptide substrate by ELISA
[37] = Inhibition of recombinant human TACE using peptide substrate by ELISA
[38] = molecular target: T3, Neutrophil collagenase; test: Inhibition of recombinant human MMP-8 using peptide substrate by ELISA
[39] = test system: Mus musculus; test: Antimetastatic activity in SCID mouse with human tumor cell orthotopic implantation assessed as reduction in tumor metastasis at 50 mg/kg, ip for 6 weeks; type: functional; design: scale not given: the % may be the effect or the level left
[40] = test system: Mus musculus; test: Antitumor activity against SCID mouse with human tumor cell orthotopic implantation assessed as reduction in tumor growth at 50 mg/kg, ip for 6 weeks; type: functional; design: scale not given: the % may be the effect or the level left
[41] = Half life in Sprague-Dawley rats at 50 mg/kg, iv; type: ADME, organism-based; conditions: rat, in vivo
[42] = Inhibition of brain damage in C57BL/6J mouse traumatic brain injury model at 25 mg/kg, ip for 7 days by cresyl violet-staining based histopathological analysis; type: functional; conditions: 168 h, time 7 day

T3 sequence (P22894 whole entry): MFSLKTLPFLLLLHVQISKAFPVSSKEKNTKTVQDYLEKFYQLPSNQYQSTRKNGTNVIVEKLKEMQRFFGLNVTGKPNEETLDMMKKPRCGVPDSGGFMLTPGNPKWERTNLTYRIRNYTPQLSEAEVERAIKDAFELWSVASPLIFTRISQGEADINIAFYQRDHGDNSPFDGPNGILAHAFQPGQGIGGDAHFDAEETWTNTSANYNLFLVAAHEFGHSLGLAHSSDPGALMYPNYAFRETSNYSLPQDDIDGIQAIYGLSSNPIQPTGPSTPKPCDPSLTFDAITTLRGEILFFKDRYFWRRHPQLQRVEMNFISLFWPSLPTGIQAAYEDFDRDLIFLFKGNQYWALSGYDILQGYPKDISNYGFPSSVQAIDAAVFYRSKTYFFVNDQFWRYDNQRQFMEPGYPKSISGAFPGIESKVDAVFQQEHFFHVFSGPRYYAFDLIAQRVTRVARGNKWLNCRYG
T5 sequence (P14780 whole entry): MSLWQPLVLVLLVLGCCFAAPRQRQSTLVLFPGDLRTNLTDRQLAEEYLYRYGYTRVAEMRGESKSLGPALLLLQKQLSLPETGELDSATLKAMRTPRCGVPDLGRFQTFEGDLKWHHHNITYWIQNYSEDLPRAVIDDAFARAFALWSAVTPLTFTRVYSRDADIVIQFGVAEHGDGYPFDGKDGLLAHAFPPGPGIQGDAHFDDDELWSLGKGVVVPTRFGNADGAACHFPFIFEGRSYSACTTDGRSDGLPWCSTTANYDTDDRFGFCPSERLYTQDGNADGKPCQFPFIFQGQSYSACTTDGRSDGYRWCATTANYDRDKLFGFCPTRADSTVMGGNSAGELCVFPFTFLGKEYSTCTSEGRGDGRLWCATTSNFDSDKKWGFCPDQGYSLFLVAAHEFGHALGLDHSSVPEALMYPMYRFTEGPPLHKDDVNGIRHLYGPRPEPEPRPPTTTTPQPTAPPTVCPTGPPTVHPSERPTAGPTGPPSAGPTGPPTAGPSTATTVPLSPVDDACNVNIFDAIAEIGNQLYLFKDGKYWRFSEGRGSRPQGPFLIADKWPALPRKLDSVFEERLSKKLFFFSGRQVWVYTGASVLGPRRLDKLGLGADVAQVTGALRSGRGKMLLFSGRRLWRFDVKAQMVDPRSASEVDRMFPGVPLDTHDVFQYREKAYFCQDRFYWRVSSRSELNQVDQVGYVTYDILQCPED
T2 sequence (P08254 whole entry): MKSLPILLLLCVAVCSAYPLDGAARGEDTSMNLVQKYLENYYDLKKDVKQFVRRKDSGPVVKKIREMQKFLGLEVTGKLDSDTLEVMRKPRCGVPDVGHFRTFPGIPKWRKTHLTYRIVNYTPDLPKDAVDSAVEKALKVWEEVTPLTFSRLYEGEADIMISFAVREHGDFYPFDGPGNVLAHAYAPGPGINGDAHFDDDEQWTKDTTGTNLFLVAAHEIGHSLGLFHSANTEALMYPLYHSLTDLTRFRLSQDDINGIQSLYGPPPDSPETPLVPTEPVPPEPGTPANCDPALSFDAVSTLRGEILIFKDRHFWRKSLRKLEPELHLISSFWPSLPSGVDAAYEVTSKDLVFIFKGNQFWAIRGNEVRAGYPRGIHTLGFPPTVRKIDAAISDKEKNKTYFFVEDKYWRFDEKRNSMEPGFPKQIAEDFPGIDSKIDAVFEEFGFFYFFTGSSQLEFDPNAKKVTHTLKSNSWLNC
T4 sequence (P08253 whole entry): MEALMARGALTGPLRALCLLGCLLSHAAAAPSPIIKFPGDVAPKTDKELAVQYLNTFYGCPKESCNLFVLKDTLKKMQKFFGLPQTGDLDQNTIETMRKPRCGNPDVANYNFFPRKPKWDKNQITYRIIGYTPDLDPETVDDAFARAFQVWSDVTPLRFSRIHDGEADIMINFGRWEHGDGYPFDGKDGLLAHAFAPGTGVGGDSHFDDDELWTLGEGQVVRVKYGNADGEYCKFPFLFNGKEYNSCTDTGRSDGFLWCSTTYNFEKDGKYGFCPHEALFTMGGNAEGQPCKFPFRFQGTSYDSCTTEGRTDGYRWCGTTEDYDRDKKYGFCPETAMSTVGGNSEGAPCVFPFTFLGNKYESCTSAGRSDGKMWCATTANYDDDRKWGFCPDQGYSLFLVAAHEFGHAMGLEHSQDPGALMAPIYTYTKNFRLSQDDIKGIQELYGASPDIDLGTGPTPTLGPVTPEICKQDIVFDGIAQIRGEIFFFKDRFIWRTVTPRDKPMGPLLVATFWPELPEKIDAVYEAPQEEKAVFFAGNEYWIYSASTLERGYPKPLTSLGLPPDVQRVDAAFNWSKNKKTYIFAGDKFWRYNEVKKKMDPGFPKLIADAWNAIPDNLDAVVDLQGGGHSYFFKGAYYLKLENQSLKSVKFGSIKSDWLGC
T6 sequence (P39900 whole entry): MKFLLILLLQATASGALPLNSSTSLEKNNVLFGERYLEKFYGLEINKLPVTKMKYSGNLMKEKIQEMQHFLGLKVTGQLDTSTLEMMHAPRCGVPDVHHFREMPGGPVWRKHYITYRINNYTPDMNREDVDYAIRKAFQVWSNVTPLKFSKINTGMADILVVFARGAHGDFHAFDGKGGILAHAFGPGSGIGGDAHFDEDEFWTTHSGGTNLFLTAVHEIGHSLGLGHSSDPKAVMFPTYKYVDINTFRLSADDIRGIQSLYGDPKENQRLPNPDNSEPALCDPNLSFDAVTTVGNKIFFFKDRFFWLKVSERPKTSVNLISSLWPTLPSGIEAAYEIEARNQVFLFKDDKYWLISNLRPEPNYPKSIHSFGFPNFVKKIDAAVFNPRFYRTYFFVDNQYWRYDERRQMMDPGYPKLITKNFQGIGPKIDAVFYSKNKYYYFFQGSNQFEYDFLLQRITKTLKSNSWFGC
Sequence of Stromelysin-2 (P09238 whole entry): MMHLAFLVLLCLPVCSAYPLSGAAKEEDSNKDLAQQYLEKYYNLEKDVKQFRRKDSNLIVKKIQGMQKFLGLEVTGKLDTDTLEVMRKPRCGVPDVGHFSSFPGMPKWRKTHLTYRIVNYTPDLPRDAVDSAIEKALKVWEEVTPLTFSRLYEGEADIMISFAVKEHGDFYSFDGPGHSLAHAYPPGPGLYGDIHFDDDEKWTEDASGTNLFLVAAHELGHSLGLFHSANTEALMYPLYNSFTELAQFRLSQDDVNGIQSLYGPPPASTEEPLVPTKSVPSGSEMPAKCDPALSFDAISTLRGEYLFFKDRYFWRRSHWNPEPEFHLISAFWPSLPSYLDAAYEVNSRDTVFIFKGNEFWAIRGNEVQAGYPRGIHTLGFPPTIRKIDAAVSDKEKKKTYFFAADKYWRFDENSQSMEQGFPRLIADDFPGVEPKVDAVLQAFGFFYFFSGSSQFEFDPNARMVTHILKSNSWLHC

Structure (SMILES): C=C[C@@H]1OC(Cc2ccccc2)=N[C@H]1CO
- Ki [1]: > 500000 nM

Structure (SMILES): NC(=O)[C@@H](CCC(=O)O)NC(=O)[C@@H](CCC(=O)O)NC(=O)[C@@H](Cc1cc(-c2ccc(-c3cccc(Cl)c3)cc2)no1)CP(=O)(O)c1ccc(Br)cc1
- Ki [2]: 40 nM
- Ki [3]: 271 nM
- Ki [4]: 192 nM
- Ki [5]: 18400 nM
- Ki [6]: 1260 nM
- Ki [7]: 67000 nM
- Ki [8]: 0.19 nM
- Ki [9]: 140 nM
- Ki [10]: 49 nM
- Ki [11]: 626 nM

Structure (SMILES): O=P(O)(O)C(NS(=O)(=O)c1ccc(-c2ccc(Cl)cc2)cc1)P(=O)(O)O
- IC50 [12]: > 1000 nM
- IC50 [13]: 320 nM
- IC50 [14]: > 1000 nM

Structure (SMILES): CC1(C)NC(=O)N(C[C@@H](COc2ccc(-c3ccc(OC(F)(F)F)cc3)cc2)N(O)C=O)C1=O
- Activity [15]: 46%
- bioavailability [16]: 84%
- concentration at 3 h [17]: 1500 ng/mL
- clearance [18]: 2 mL/min/kg
- bioavailability [19]: 84%
- clearance [20]: 1.83 mL/min/kg
- half-life [21]: 21 h
- concentration at 3 h [22]: 1500 ng/mL
- concentration at 3 h [23]: 1500 ng/mL
- bioavailability [24]: 84%
- clearance [25]: 1.13 mL/min/kg
- half-life [26]: 8 h

Structure (SMILES): NC1CCCCC1NC(=O)P(=O)(O)O (configuration not stated)
- IC50 [27]: > 100 nM
- IC50 [28]: > 100 nM
- inhibition at 100 µM [29]: 90%
- Activity [30]: 50%
- IC50 [31]: > 100 nM
- half-life [32]: 1.8 h
- IC50 [33]: 4 nM
- half-life [34]: 2.1 h
- IC50 [35]: 20 nM
- IC50 [36]: > 100 nM
- IC50 [37]: > 100 nM
- IC50 [38]: > 100 nM
- Activity [39]: 90%
- Activity [40]: 60%
- half-life [41]: 0.313 h

Structure (SMILES): O=S(=O)(CC1CS1)c1ccc(Oc2ccccc2)cc1 (configuration not stated)
- inhibition in vivo at 25 mg/kg [42]: 14%

Reference: ChEMBL document CHEMBL5113513, “Selective Inhibitors of Medium-Size S1' Pocket Matrix Metalloproteinases: A Stepping Stone of Future Drug Discovery” (J Med Chem, 2022)
